Active and inactive are the calls of the source. No cut-off for these calls is given here.
Legend:
Spirodela polyrhiza [1] = test: Bleaching herbicidal activity in Spirodela polyrhiza fronds cultured in compound-containing in medium assessed as chlorophyll inhibition at 10 ug/ml after 7 days; type: functional; conditions: 168 h
[2] = test system: Brassica rapa subsp. oleifera; test: Post-emergence herbicidal activity against one-leaf stage Brassica rapa subsp. oleifera under greenhouse condition at 150 g /ha measured after 24 days by spray method; type: functional; conditions: 576 h, read-out: GI
Spirodela polyrhiza [3] = test: Bleaching herbicidal activity in Spirodela polyrhiza fronds cultured in compound-containing in medium assessed as chlorophyll inhibition at 1 ug/ml after 7 days; type: functional; conditions: 168 h
Amaranthus retroflexus [4] = test: Post-emergence herbicidal activity against one-leaf stage of Amaranthus retroflexus under greenhouse condition at 750 g /ha measured after 24 days by spray method; type: functional; conditions: 576 h, read-out: GI
Echinochloa crus-galli [5] = test: Post-emergence herbicidal activity against one-leaf stage of Echinochloa crus-galli (barnyard grass) under greenhouse condition at 750 g /ha measured after 24 days by spray method; type: functional; conditions: 576 h, read-out: GI
Echinochloa crus-galli [6] = test: Pre-emergence herbicidal activity against Echinochloa crus-galli (barnyard grass) under greenhouse condition at 750 g /ha measured after 24 days by spray method; type: functional; conditions: 576 h, read-out: GI
[7] = test system: Brassica rapa subsp. oleifera; test: Post-emergence herbicidal activity against one-leaf stage Brassica rapa subsp. oleifera under greenhouse condition at 600 g /ha measured after 24 days by spray method; type: functional; conditions: 576 h, read-out: GI
[8] = test system: Brassica rapa subsp. oleifera; test: Post-emergence herbicidal activity against one-leaf stage Brassica rapa subsp. oleifera under greenhouse condition assessed as complete bleaching of leaves at 600 g /ha measured after 24 days by spray method; type: functional, organism-based
[9] = test system: Brassica rapa subsp. oleifera; test: Post-emergence herbicidal activity against one-leaf stage Brassica rapa subsp. oleifera under greenhouse condition at 750 g /ha measured after 24 days by spray method; type: functional; conditions: 576 h, read-out: GI
Amaranthus retroflexus [10] = test: Pre-emergence herbicidal activity against Amaranthus retroflexus under greenhouse condition at 750 g /ha measured after 24 days by spray method; type: functional; conditions: 576 h, read-out: GI
Digitaria [11] = test: Pre-emergence herbicidal activity against Digitaria adscendens under greenhouse condition at 750 g /ha measured after 24 days by spray method; type: functional; conditions: in Digitaria adscendens, 576 h, read-out: GI
[12] = test system: Brassica rapa subsp. oleifera; test: Pre-emergence herbicidal activity against Brassica rapa subsp. oleifera under greenhouse condition at 750 g /ha measured after 24 days by spray method; type: functional; conditions: 576 h, read-out: GI
[13] = test system: Brassica rapa subsp. oleifera; test: Post-emergence herbicidal activity against one-leaf stage Brassica rapa subsp. oleifera under greenhouse condition at 300 g /ha measured after 24 days by spray method; type: functional; conditions: 576 h, read-out: GI
Digitaria [14] = test: Post-emergence herbicidal activity against one-leaf stage of Digitaria adscendens under greenhouse condition at 750 g /ha measured after 24 days by spray method; type: functional; conditions: in Digitaria adscendens, 576 h, read-out: GI
[15] = test system: Brassica rapa subsp. oleifera; test: Post-emergence herbicidal activity against one-leaf stage Brassica rapa subsp. oleifera under greenhouse condition assessed as complete bleaching of leaves at 300 g /ha measured after 24 days by spray method; type: functional, organism-based
[16] = test system: Brassica rapa subsp. oleifera; test: Post-emergence herbicidal activity against one-leaf stage Brassica rapa subsp. oleifera under greenhouse condition assessed as complete bleaching of leaves at 150 g /ha measured after 24 days by spray method; type: functional, organism-based
[17] = test system: Brassica rapa subsp. oleifera; test: Post-emergence herbicidal activity against one-leaf stage Brassica rapa subsp. oleifera under greenhouse condition assessed as complete bleaching of leaves at 75 g /ha measured after 24 days by spray method; type: functional, organism-based
[18] = test system: Brassica rapa subsp. oleifera; test: Post-emergence herbicidal activity against one-leaf stage Brassica rapa subsp. oleifera under greenhouse condition at 75 g /ha measured after 24 days by spray method; type: functional; conditions: 576 h, read-out: GI
Amaranthus retroflexus [19] = test: Post-emergence herbicidal activity against one-leaf stage Amaranthus retroflexus under greenhouse condition at 300 g /ha measured after 24 days by spray method; type: functional; conditions: 576 h, read-out: GI
Amaranthus retroflexus [20] = test: Post-emergence herbicidal activity against one-leaf stage Amaranthus retroflexus under greenhouse condition assessed as complete bleaching of leaves at 600 g /ha measured after 24 days by spray method; type: functional, organism-based
Amaranthus retroflexus [21] = test: Post-emergence herbicidal activity against one-leaf stage Amaranthus retroflexus under greenhouse condition at 150 g /ha measured after 24 days by spray method; type: functional; conditions: 576 h, read-out: GI
Amaranthus retroflexus [22] = test: Post-emergence herbicidal activity against one-leaf stage Amaranthus retroflexus under greenhouse condition assessed as complete bleaching of leaves at 150 g /ha measured after 24 days by spray method; type: functional, organism-based
Amaranthus retroflexus [23] = test: Post-emergence herbicidal activity against one-leaf stage Amaranthus retroflexus under greenhouse condition assessed as complete bleaching of leaves at 300 g /ha measured after 24 days by spray method; type: functional, organism-based
Amaranthus retroflexus [24] = test: Post-emergence herbicidal activity against one-leaf stage Amaranthus retroflexus under greenhouse condition at 600 g /ha measured after 24 days by spray method; type: functional; conditions: 576 h, read-out: GI
Amaranthus retroflexus [25] = test: Post-emergence herbicidal activity against one-leaf stage Amaranthus retroflexus under greenhouse condition at 75 g /ha measured after 24 days by spray method; type: functional; conditions: 576 h, read-out: GI

Row | SMILES | inhibition at 10 µg/mL (Spirodela polyrhiza [1]) [%] | inhibition of growth at 150 g/ha [2] [%] | inhibition at 1 µg/mL (Spirodela polyrhiza [3]) [%] | inhibition of growth at 750 g/ha (Amaranthus retroflexus [4]) [%] | inhibition of growth at 750 g/ha (Echinochloa crus-galli [5]) [%] | inhibition of growth at 750 g/ha (Echinochloa crus-galli [6]) [%] | inhibition of growth at 600 g/ha [7] [%] | Activity [8] | inhibition of growth at 750 g/ha [9] [%] | inhibition of growth at 750 g/ha (Amaranthus retroflexus [10]) [%] | inhibition of growth at 750 g/ha (Digitaria [11]) [%] | inhibition of growth at 750 g/ha [12] [%] | inhibition of growth at 300 g/ha [13] [%] | inhibition of growth at 750 g/ha (Digitaria [14]) [%] | Activity [15] | Activity [16] | also measured
1 | Cc1cc(-c2cccc(C(F)(F)F)c2)c(OCc2ccccc2Cl)nn1 | 93 | 57 | 59 | 47 | 16 | 0 | 97 | Active | 90 | 40 | 26 | 52 | 96 | 26 | Active | Active | 
2 | Cc1cc(-c2cccc(C(F)(F)F)c2)c(OCc2ccccc2)nn1 | 82 | 62 | 62 | 50 | 29 | 27 | 92 | Active | 94 | 38 | 7 | 55 | 86 | 0 | Active | Active | 
3 | Cc1cc(-c2cccc(C(F)(F)F)c2)c(OCc2ccccc2C)nn1 | 86 | 79 | 62 | 29 | 55 | 2 | 95 | Active | 97 | 36 | 19 | 58 | 86 | 7 | Active | Active | Activity [17]: Active; inhibition of growth at 75 g/ha [18]: 44%
4 | Cc1cc(-c2cccc(C(F)(F)F)c2)c(OCc2cccc(F)c2)nn1 | 96 | 30 | 89 | 47 | 14 | 18 | 66 | Active | 93 | 9 | 10 | 0 | 47 | 0 | Active | Active | 
5 | Cc1cc(-c2cccc(C(F)(F)F)c2)c(Oc2cccc(C(F)(F)F)c2)nn1 | 92 | 52 | 84 | 79 | 38 | 0 | 66 | Active | 99 | 0 | 7 | 0 | 58 | 62 | Active | Active | inhibition of growth at 300 g/ha (Amaranthus retroflexus [19]): 70%; Activity (Amaranthus retroflexus [20]): Active; inhibition of growth at 150 g/ha (Amaranthus retroflexus [21]): 49%; Activity (Amaranthus retroflexus [22]): Active; Activity (Amaranthus retroflexus [23]): Active; Activity [17]: Active; inhibition of growth at 75 g/ha [18]: 39%; inhibition of growth at 600 g/ha (Amaranthus retroflexus [24]): 94%; inhibition of growth at 75 g/ha (Amaranthus retroflexus [25]): 19%
6 | Cc1cc(-c2cccc(C(F)(F)F)c2)c(OCc2ccccc2Br)nn1 | 100 | 49 | 93 | 54 | 0 | 1 | 85 | Active | 91 | 21 | 25 | 8 | 73 | 3 | Active | Active | 
7 | Cc1cc(-c2cccc(C(F)(F)F)c2)c(Oc2ccccc2Cl)nn1 | 50 | 48 | 42 | 84 | 24 | 0 | 91 | Active | 100 | 0 | 19 | 9 | 67 | 27 | Active | Active | inhibition of growth at 300 g/ha (Amaranthus retroflexus [19]): 39%; Activity (Amaranthus retroflexus [20]): Active; inhibition of growth at 150 g/ha (Amaranthus retroflexus [21]): 20%; Activity (Amaranthus retroflexus [23]): Active; Activity [17]: Active; inhibition of growth at 75 g/ha [18]: 31%; inhibition of growth at 600 g/ha (Amaranthus retroflexus [24]): 65%; inhibition of growth at 75 g/ha (Amaranthus retroflexus [25]): 5%
8 | Cc1cc(-c2cccc(C(F)(F)F)c2)c(OCc2ccccc2C(F)(F)F)nn1 | 76 | 38 | 73 | 46 | 14 | 17 | 92 | Active | 93 | 16 | 2 | 28 | 49 | 8 | Active | Active | 
9 | Cc1cc(-c2cccc(C(F)(F)F)c2)c(OCc2ccc(Br)cc2)nn1 | 27 |  | 14 | 23 | 15 | 4 |  |  | 20 | 0 | 0 | 0 |  | 0 |  |  | 
10 | Cc1cc(-c2cccc(C(F)(F)F)c2)c(Oc2ccccc2-c2ccccc2)nn1 | 33 |  | 29 | 25 | 0 | 0 |  |  | 0 | 18 | 0 | 0 |  | 0 |  |  | 
11 | Cc1cc(C)cc(COc2nnc(C)cc2-c2cccc(C(F)(F)F)c2)c1 | 71 |  | 0 | 10 | 11 | 1 |  |  | 36 | 2 | 0 | 0 |  | 24 |  |  | 

Reference: ChEMBL document CHEMBL3045111, “Synthesis and herbicidal activities of novel 3-(substituted benzyloxy or phenoxy)-6-methyl-4-(3-trifluoromethylphenyl)pyridazine derivatives” (2012)
